Assay results as given in patent US12583839B2, “PD-L1 antagonist compound” (ADLAI NORTYE BIOPHARMA CO., LTD., priority 2019, dated 2026).

target: T1, PD-1/PD-L1 (Homo sapiens, UniProt Q9NZQ7); experiment: Detection of biological activity of PD-1/PD-L1 signaling inhibition at the cellular level (NFAT luciferase reporter, PD-1/NFAT-Reporter-Jurkat cells co-cultured with TCR activator/PD-L1-CHO cells); assay type: cell-based; settings: PD-1/NFAT-Reporter-Jurkat + TCR activator/PD-L1-CHO co-culture, 6 hours; Atezolizumab as positive control
T1 construct: 60535 (PD-1/NFAT-Reporter-Jurkat); host or cells: CHO cells expressing PD-L1; Jurkat cells expressing PD-1
Excerpt: Detection of Biological Activity of PD-1/PD-L1 Signaling Inhibition at the Cellular Level
This detection method is used for evaluating the biological activity of the compounds described in the present invention at the cellular level.
This detection method uses the luciferase reporter gene method to detect the biological activity of the compound on the inhibition of PD-1/PD-L1 signal at the cellular level. PD-1/NFAT—Reporter—Jurkat cells stably express human PD-1 and express the luciferase reporter gene regulated by NFAT elements; TCR activator/PD-L1-CHO cells stably express human PD-L1 and TCR activator elements. When the two cell lines were co-cultured, the binding of PD-1/PD-L1 inhibited the TCR signaling pathway, thereby inhibiting the expression of the downstream NFAT-controlled luciferase reporter gene. When PD-1/PD-L1 antibody or inhibitor is added, this inhibitory effect is reversed and luciferase is expressed, so that the effect of PD-1/PD-L1 inhibitor on luciferase activity can be detected.
PD-1/NFAT—Reporter—Jurkat cell (Cat: 60535) and TCR activator/PD-L1-CHO cell (Cat: 60536) were purchased from BPS Bioscience. Anti-human PD-L1 antibody (Atezolizumab, Cat: A2004) was purchased from Selleck; luciferase reporter gene expression detection kit (ONE-Glo™ Luciferase Assay System, Cat: E6120) was purchased from Promega; multifunction plate reader (SpectraMax i3x) was purchased from Molecular Devices.
The PD-1/NFAT—Reporter—Jurkat cells and TCR activator/PD-L1-CHO cells were cultured according to the routine cell culture protocol.
TCR activator/PD-L1-CHO cells were harvested and seeded into a 96-well culture plate at 35,000 cells/well in a medium volume of 100 μl and incubated overnight at 37° C. The next day, the medium was discarded, compound was added and incubated for 30 minutes, while a solvent control (dimethyl sulfoxide, DMSO, final concentration of 0.1%) and PD-L1 antibody (Atezolizumab, final concentration of about 10 nM) as positive controls were set. PD-1/NFAT-reporter-Jurkat cells were then added. After culturing for 6 hours, the luciferase activity was detected according to the instructions of the luciferase detection reagent.
Using PD-L1 antibody as a positive control, calculate the inhibition rate of PD-1/PD-L1 binding of the test compound (%)=(chemiluminescence value of compound treated wells/average value of chemiluminescence value of solvent control wells−1)/(average value of chemiluminescence value of PD-L1 antibody well/average value of chemiluminescence value of solvent control well−1)×100%.
According to the above detection method, the compounds of the present invention were evaluated for their biological activity at the cellular level, and the activity results are shown in the following table.

T1 sequence (Q9NZQ7 19-290): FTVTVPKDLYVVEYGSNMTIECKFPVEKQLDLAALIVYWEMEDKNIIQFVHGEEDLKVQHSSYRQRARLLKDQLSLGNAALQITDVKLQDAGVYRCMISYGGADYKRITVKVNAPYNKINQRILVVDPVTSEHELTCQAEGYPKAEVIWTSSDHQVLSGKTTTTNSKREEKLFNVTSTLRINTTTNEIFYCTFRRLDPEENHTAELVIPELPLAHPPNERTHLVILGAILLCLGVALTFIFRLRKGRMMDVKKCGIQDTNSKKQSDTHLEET

COc1cc(Cn2ncc3c(-c4cccc(-c5cc(F)c(CNC[C@@H]6CCC(=O)N6)c(OC)c5)c4Cl)cccc32)c(Cl)cc1CN(C)[C@H]1C[C@H](C(=O)O)C1 [Compound 113] and COc1cc(Cn2ncc3c(-c4cccc(-c5cc(F)c(CNC[C@@H]6CCC(=O)N6)c(OC)c5)c4Cl)cccc32)c(C#N)cc1CN(C)[C@H]1C[C@H](C(=O)O)C1 [Compound 139] are the same in EC50: 15 nM for the first, 15 nM for the second.

COc1cc(Cn2ncc3c(-c4cccc(-c5cc(F)c(CNC[C@@H]6CCC(=O)N6)c(OC)c5)c4Cl)cccc32)c(Cl)cc1CN(C)[C@H]1CC[C@H](C(=O)O)CC1 [Compound 114] and COc1cc(Cn2ncc3c(-c4cccc(-c5cc(F)c(CNC[C@@H]6CCC(=O)N6)c(OC)c5)c4Cl)cccc32)c(Cl)cc1CN(C)C1CCC(CC(=O)O)CC1 (stereo partly drawn) [Compound 115] are within 1.5-fold of each other in EC50: 14 nM for the first, 16 nM for the second.

Compared with COc1cc(Cn2ncc3c(-c4cccc(-c5cc(F)c(CNC[C@@H]6CCC(=O)N6)c(OC)c5)c4Cl)cccc32)c(Cl)cc1CN(C)C12CCC(C(=O)O)(CC1)CC2 [Compound 116], COc1cc(Cn2ncc3c(-c4cccc(-c5cc(F)c(CNC[C@@H]6CCC(=O)N6)c(OC)c5)c4Cl)cccc32)c(C#N)cc1CN(C)[C@]12CC[C@@](C(=O)O)(CC1)CC2 [Compound 140] is 1.6-fold higher in EC50: 16 nM for the first, 25 nM for the second.

First: COc1cc(Cn2ncc3c(-c4cccc(-c5ccc(CNC[C@@H]6CCC(=O)N6)cc5)c4Cl)cc(Cl)cc32)c(Cl)cc1CN[C@@H](CO)C(=O)O [Compound 117]
Second: COc1cc(-c2cccc(-c3cccc4c3cnn4Cc3cc(OC)c(CN(C)C4CC(CC(=O)O)C4)cc3Cl)c2Cl)ccc1CNC[C@@H]1CCC(=O)N1 (stereo partly drawn) [Compound 119]
The EC50 of the first is 3.5-fold higher: 537 nM for the first, 152 nM for the second. The second is the more potent here.

Going from COc1cc(-c2cccc(-c3cccc4c3cnn4Cc3cc(OC)c(CN(C)CC4CCC(CC(=O)O)CC4)cc3Cl)c2Cl)ccc1CNC[C@@H]1CCC(=O)N1 (stereo partly drawn) [Compound 118] to COc1cc(Cn2ncc3c(-c4cccc(-c5cc(F)c(CNC[C@@H]6CCC(=O)N6)c(OC)c5)c4Cl)cccc32)c(Cl)cc1CN(C)C[C@H]1CC[C@H](CC(=O)O)CC1 [Compound 130], the EC50 rises from 53 nM to 134 nM (2.5-fold). The first is the more potent here.

COc1cc(-c2cccc(-c3cccc4c3cnn4Cc3cc(OC)c(CN(C)C4CCC(/C=C/C(=O)O)CC4)cc3Cl)c2Cl)ccc1CNC[C@@H]1CCC(=O)N1 (stereo partly drawn) [Compound 120] and COc1cc(Cn2ncc3c(-c4cccc(-c5cc(F)c(CNC[C@@H]6CCC(=O)N6)c(OC)c5)c4Cl)cccc32)c(Cl)cc1CN(C)[C@H]1CC[C@H](/C=C/C(=O)O)CC1 [Compound 132] are within 1.5-fold of each other in EC50: 32 nM for the first, 23 nM for the second.

COc1cc(-c2cccc(-c3cccc4c3cnn4Cc3cc(OC)c(CN(C)C4CCC(CCC(=O)O)CC4)cc3Cl)c2Cl)ccc1CNC[C@@H]1CCC(=O)N1 (stereo partly drawn) [Compound 121] and COc1cc(Cn2ncc3c(-c4cccc(-c5cc(F)c(CNC[C@@H]6CCC(=O)N6)c(OC)c5)c4Cl)cccc32)c(Cl)cc1CN(C)[C@H]1CC[C@H](CCC(=O)O)CC1 [Compound 131] are within 1.5-fold of each other in EC50: 34 nM for the first, 40 nM for the second.

First: COc1cc(-c2cccc(-c3cccc4c3cnn4Cc3cc(OC)c(CN(C4CCC(C(=O)O)CC4)C4CC4)cc3Cl)c2Cl)ccc1CNC[C@@H]1CCC(=O)N1 (stereo partly drawn) [Compound 122]
Second: COc1cc(-c2cccc(-c3cccc4c3cnn4Cc3cc(OC)c(CN(CC4CC4)[C@H]4CC[C@H](C(=O)O)CC4)cc3Cl)c2Cl)ccc1CNC[C@@H]1CCC(=O)N1 [Compound 126]
The EC50 of the first is 3.1-fold higher: 320 nM for the first, 103 nM for the second.

Going from CCOc1cc(Cn2ncc3c(-c4cccc(-c5ccc(CNC[C@@H]6CCC(=O)N6)c(OC)c5)c4Cl)cccc32)c(Cl)cc1CN(C)C[C@H]1CC[C@H](C(=O)O)CC1 [Compound 124] to COc1cc(-c2cccc(-c3cccc4c3cnn4Cc3cc(OCC(N)=O)c(CN(C)C[C@H]4CC[C@H](C(=O)O)CC4)cc3Cl)c2Cl)ccc1CNC[C@@H]1CCC(=O)N1 [Compound 127], the EC50 rises from 91 nM to 160 nM (1.8-fold). The first is the more potent here.

Compared with COc1cc(-c2cccc(-c3cccc4c3cnn4Cc3cc(OC)c(CN(Cc4ccccc4)[C@H]4CC[C@H](C(=O)O)CC4)cc3Cl)c2Cl)ccc1CNC[C@@H]1CCC(=O)N1 [Compound 125], COc1cc(-c2cccc(-c3cccc4c3cnn4Cc3cc(OC)c(CN(C)C4CCC(C(=O)O)CC4)cc3Cl)c2Cl)ccc1CNC[C@@H]1CCCC(=O)N1 (stereo partly drawn) [Compound 153] is 7.2-fold lower in EC50: 680 nM for the first, 94 nM for the second.

First: COc1cc(-c2cccc(-c3cccc4c3cnn4Cc3cc(OCC(=O)O)c(CN(C)C[C@H]4CC[C@H](C(=O)O)CC4)cc3Cl)c2Cl)ccc1CNC[C@@H]1CCC(=O)N1 [Compound 128]
Second: COc1cc(-c2cccc(-c3cccc4c3cnn4Cc3cc(OC[C@@H]4CCC(=O)N4)c(CN(C)C[C@H]4CC[C@H](C(=O)O)CC4)cc3Cl)c2Cl)ccc1CNC[C@@H]1CCC(=O)N1 [Compound 134]
The EC50 of the first is 5.8-fold higher: 391 nM for the first, 68 nM for the second. The second is the more potent here.

First: COc1cc(-c2cccc(-c3cccc4c3cnn4Cc3cc(OC)c(CN(C)[C@H]4CC[C@H](C(=O)NS(C)(=O)=O)CC4)cc3Cl)c2Cl)ccc1CNC[C@@H]1CCC(=O)N1 [Compound 129]
Second: COc1cc(-c2cccc(-c3cccc4c3cnn4Cc3nc(OC)c(CN(C)[C@H]4CC[C@H](C(=O)O)CC4)cc3Cl)c2Cl)ccc1CNC[C@@H]1CCC(=O)N1 [Compound 151]
The EC50 of the first is 2.2-fold lower: 29 nM for the first, 63 nM for the second. The first is the more potent here.

Going from COc1cc(Cn2ncc3c(-c4cccc(-c5ccc(CNC[C@@H]6CCC(=O)N6)c(OC)n5)c4Cl)cccc32)c(Cl)cc1CN(C)C12CCC(C(=O)O)(CC1)CC2 [Compound 133] to COc1nc(-c2cccc(-c3cccc4c3cnn4Cc3nc(OC)c(CN(C)C45CCC(C(=O)O)(CC4)CC5)cc3Cl)c2Cl)ccc1CNC[C@@H]1CCC(=O)N1 [Compound 137], the EC50 falls from 81 nM to 41 nM (2-fold).

Compared with COc1cc(-c2cccc(-c3cccc4c3cnn4Cc3nc(OC)c(CN(C)C45CCC(C(=O)O)(CC4)CC5)cc3Cl)c2Cl)cc(F)c1CNC[C@@H]1CCC(=O)N1 [Compound 135], COc1cc(Cn2ncc3c(-c4cccc(-c5cc(F)c(CNC[C@@H]6CCC(=O)N6)c(OC)c5)c4Cl)cccc32)c([N+](=O)[O-])cc1CN(C)C12CCC(C(=O)O)(CC1)CC2 [Compound 145] is 2-fold higher in EC50: 25 nM for the first, 51 nM for the second.

First: COc1cc(Cn2ncc3c(-c4cccc(-c5cc(F)c(CNC[C@@H]6CCC(=O)N6)c(OC)c5)c4Cl)cccc32)c(Cl)cc1CN(C)C12CC(C(=O)O)(C1)C2 [Compound 136]
Second: COc1cc(Cn2ncc3c(-c4cccc(-c5cc(F)c(CNC[C@@H]6CCC(=O)N6)c(OC)c5)c4Cl)cccc32)c(C(F)(F)F)cc1CN(C)C12CCC(C(=O)O)(CC1)CC2 [Compound 150]
The EC50 of the first is 8-fold higher: 240 nM for the first, 30 nM for the second.

COc1cc(Cn2ncc3c(-c4cccc(-c5cc(F)c(CNC[C@@H]6CCC(=O)N6)c(OC)c5)c4Cl)cccc32)c(C#N)cc1CN(C)[C@H]1CC[C@H](CC(=O)O)CC1 [Compound 141] and COc1cc(Cn2ncc3c(-c4cccc(-c5cc(F)c(CNC[C@@H]6CCC(=O)N6)c(OC)c5)c4Cl)cccc32)c([N+](=O)[O-])cc1CN(C)[C@H]1CC[C@H](CC(=O)O)CC1 [Compound 144] are the same in EC50: 40 nM for the first, 40 nM for the second.

COc1cc(Cn2ncc3c(-c4cccc(-c5cc(F)c(CNC[C@@H]6CCC(=O)N6)c(OC)c5)c4Cl)cccc32)c([N+](=O)[O-])cc1CN(C)[C@H]1CC[C@H](C(=O)O)CC1 [Compound 142] and COc1cc(Cn2ncc3c(-c4cccc(-c5cc(F)c(CNC[C@@H]6CCC(=O)N6)c(OC)c5)c4Cl)cccc32)c([N+](=O)[O-])cc1CN(C)[C@H]1C[C@H](C(=O)O)C1 [Compound 143] are within 1.5-fold of each other in EC50: 37 nM for the first, 31 nM for the second.

COc1cc(-c2cccc(-c3cccc4c3cnn4Cc3cc(OC)c(CN(C)C4CCC(CC(=O)O)CC4)cc3C(F)(F)F)c2Cl)ccc1CNC[C@@H]1CCC(=O)N1 (stereo partly drawn) [Compound 146] and COc1cc(Cn2ncc3c(-c4cccc(-c5cc(F)c(CNC[C@@H]6CCC(=O)N6)c(OC)c5)c4Cl)cccc32)c(C(F)(F)F)cc1CN(C)[C@H]1CC[C@H](CC(=O)O)CC1 [Compound 147] are within 1.5-fold of each other in EC50: 28 nM for the first, 32 nM for the second.

COc1cc(Cn2ncc3c(-c4cccc(-c5cc(F)c(CNC[C@@H]6CCC(=O)N6)c(OC)c5)c4Cl)cccc32)c(C(F)(F)F)cc1CN(C)[C@H]1CC[C@H](C(=O)O)CC1 [Compound 148] and COc1cc(Cn2ncc3c(-c4cccc(-c5cc(F)c(CNC[C@@H]6CCC(=O)N6)c(OC)c5)c4Cl)cccc32)c(C(F)(F)F)cc1CN(C)[C@H]1C[C@H](C(=O)O)C1 [Compound 149] are within 1.5-fold of each other in EC50: 34 nM for the first, 28 nM for the second.

In the case of COc1cc(Cn2ncc3c(-c4cccc(-c5ccc(CNC[C@@H]6CCC(=O)N6)c(OC)n5)c4Cl)cccc32)c(Cl)cc1CN(C)[C@H]1CC[C@H](C(=O)O)CC1 [Compound 152], the EC50 is reported as 56 nM.
